Test results as given in patent publication US8142714B2, “Cleaning and disinfection of surgical and medical instruments and appliances” (Chemische Fabrik Dr. Weigert GmbH & Co. KG, priority 2002, dated 2012).

Experiments:
[1] = Cleaning of roughened microscope slides dirtied with blood-egg yolk mixture, immersion bath; conditions: 50 mg blood-egg yolk mixture dried at 55° C. for 2 h; stirred immersion bath 10 min at room temperature; cleaner 1% strength by volume
Method: Roughened microscope slides are dirtied with 50 mg of a blood-egg yolk mixture, dried at 55° C. for 2 h and then immersed in a stirred bath for 10 min at room temperature. The medium used for the immersion bath is deionized water, 0.1 N NaOH or a 1% strength by volume cleaning solution of the cleaning composition concentrate according to example 1. The residual amount of fouling then determined is 20% by weight for water, 35% by weight for 0.1 N NaOH and less than 5% by weight for the cleaner, as immersion bath medium used.

[2] = Surface tension as specified in DIN 53993; type: physicochemical; conditions: NaOH in deionized water, cleaner 1% by volume in Hamburg city water
Method: The cleaning solution diluted in ready-to-use form preferably has a surface tension of less than 50 mN/m, preferably less than 40 mN/m, further preferably less than 35 mN/m, further preferably less than 30 mN/m. The surface tension is determined by the plate-ring method as specified in DIN 53993.
The surface tension was determined as specified in DIN 53993 for the following liquids: […]

SMILES: [Na+].[OH-] [0.1 N NaOH, NaOH]
- residual amount of fouling [1]: 35 % by weight
- surface tension [2]: 72 mN/m
